Several values for one entry are separate records, joined by “and”; a condition that tells them apart may be missing. Equal values may be shown once.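 Five compound concentrations were applied to cells in 96-well plates for 48 hours; endpoints were derived by simple linear interpolation of the resulting dose-response curve. GI50 = concentration required for 50% inhibition of growth. TGI is the concentration that stops growth completely.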
Legend:
Experiment in all cases: NCI anticancer screen, dose series, 48 h
SK-MEL-2 melanoma = system: SK-MEL-2 melanoma
HCT-15 colon = system: HCT-15 colon
TK-10 renal = system: TK-10 renal
K-562 leukemia = system: K-562 leukemia
HOP-92 NSCLC = system: HOP-92 NSCLC
RXF 393 renal = system: RXF 393 renal
OVCAR-4 ovarian = system: OVCAR-4 ovarian
MDA-MB-231 breast = system: MDA-MB-231 breast
SF-268 CNS = system: SF-268 CNS
MDA-N = system: MDA-N
ACHN renal = system: ACHN renal
U251 CNS = system: U251 CNS
KM20L2 colon = system: KM20L2 colon

| SMILES | TGI (SK-MEL-2 melanoma) [µM] | TGI (HCT-15 colon) [µM] | TGI (TK-10 renal) [µM] | TGI (K-562 leukemia) [µM] | TGI (HOP-92 NSCLC) | TGI (RXF 393 renal) | TGI (OVCAR-4 ovarian) [µM] | TGI (MDA-MB-231 breast) [µM] | TGI (SF-268 CNS) [µM] | TGI (MDA-N) [µM] | TGI (ACHN renal) [µM] | TGI (U251 CNS) [µM] | TGI (KM20L2 colon) [µM] | GI50 (RXF 393 renal) [µM] | GI50 (KM20L2 colon) [µM] | GI50 (SK-MEL-2 melanoma) [µM] | GI50 (TK-10 renal) [µM] | GI50 (K-562 leukemia) [µM] | GI50 (HOP-92 NSCLC) [µM] | GI50 (OVCAR-4 ovarian) [µM] |
| --- | --- | --- | --- | --- | --- | --- | --- | --- | --- | --- | --- | --- | --- | --- | --- | --- | --- | --- | --- | --- |
| Cn1c(=O)c(Cl)c(N=[N+]=[N-])c2ccccc21 | > 100 | > 100 | > 100 | > 100 | > 100 µM | > 100 µM | > 100 | > 100 | > 100 | > 100 | > 100 | > 100 | – | – | – | – | – | – | – | – |
| CCN1CCC(O)(c2ccc(O)cc2)C(C(=O)c2ccc(O)cc2)C1 (stereo not drawn) | – | 32.1 | 31.5 | 33.8 | 37.5 µM | 30.7 µM | 68.8 | 31.1 | > 100 | – | 34 | > 100 | – | – | – | – | – | – | – | – |
| O=c1oc2ccc([N+](=O)[O-])cc2cc1Br | > 100 | – | > 100 | > 100 | > 100 µM | > 100 µM | > 100 | > 100 | > 100 | > 100 | > 100 | > 100 | – | – | – | – | – | – | – | – |
| CC1=C2C3OC(=O)C(C)C3CCC2(C)C=CC1=Nc1ccccc1 (stereo not drawn) | > 100 | > 100 | – | > 100 | > 100 µM | > 100 µM | > 100 | – | > 100 | – | – | > 100 | > 100 | – | – | – | – | – | – | – |
| CC(=O)Nc1ccc(Sc2nnc(NC(C)=O)s2)cc1 | – | > 100 | > 100 | > 100 | – | – | > 100 | > 100 | > 100 | > 100 | > 100 | > 100 | – | – | – | – | – | – | – | – |
| CCOC(=O)C(OP(=O)(OCC)OCC)C(F)(F)F (stereo not drawn) | > 100 | > 100 | > 100 | > 100 | – | > 100 µM | – | > 100 | > 100 | > 100 | > 100 | > 100 | – | – | – | – | – | – | – | – |
| COC1C(O)C(C)OC(OC2CCC3(C)C(CCC4C3C(O)CC3(C)C(C5=CC(=O)OC5)CCC43O)C2)C1O (stereo not drawn) | 1.59 | 1.03 | 1.57 | 5.28 | 3.33 µM | 0.237 µM | – | 24.4 | 0.532 | 0.905 | 0.684 | – | – | – | – | – | – | – | – | – |
| C=CCCCCCCCCC(=O)O | 152 | 192 | – | 426 | 199 µM | 207 µM | 341 | – | 254 | – | – | 242 | 268 | – | – | – | – | – | – | – |
| COc1cc(C=O)cc(O)c1O | – | > 100 | > 100 | > 100 | – | – | – | – | > 100 | – | > 100 | > 100 | > 100 | – | – | – | – | – | – | – |
| O=C1c2ccccc2C(=O)N1CC(CN1C(=O)c2ccccc2C1=O)(C(=O)OCc1ccccc1)C(=O)OCc1ccccc1 | > 100 | > 100 | – | – | > 100 µM | > 100 µM | – | > 100 | – | > 100 | – | > 100 | – | – | – | – | – | – | – | – |
| O=c1c([OH2+])c(-c2ccc(O)cc2[O-])oc2cc(O)cc([O-])c12.O=c1c([OH2+])c(-c2ccc(O)cc2[O-])oc2cc(O)cc([O-])c12.[Ti+4] | > 100 | > 100 | > 100 | > 100 | – | > 100 µM | > 100 | – | > 100 | – | > 100 | – | > 100 | > 100 | > 100 | – | – | – | – | – |
| COc1cccc2c1C(=O)c1c(O)c3c(c(O)c1C2=O)C[C@@](O)(C(=O)CO)CC3OC1CC(NCCCC(OC(C)=O)OC(C)=O)C(O)C(C)O1 (stereo partly drawn) | – | – | > 1 | 0.000729 | 0.0065 µM and 0.000862 µM | 0.00328 µM and 0.000813 µM | – | – | – | – | – | – | 0.167 | 0.000198 | < 0.0001 | < 0.0001 | 0.363 | < 0.0001 | 0.00024 | < 0.0001 |
| CCOC(=O)C(=O)NC12CC3CC(CC(C3)C1)C2 | > 100 | > 100 | > 100 | > 100 | > 100 µM | > 100 µM | > 100 | – | > 100 | – | > 100 | > 100 | > 100 | – | – | – | – | – | – | – |

Source: PubChem BioAssay (NCI)
